What all share (assay type): in vivo
Assay [1] concerns Tetranychus urticae (spider mites - adult). The assay is described as follows: Contact test, spider mites - adult (TUa), French bean leaf. To be noted: 72 h, 3 days, read-out: TUA grading of mortality. The procedure, abridged: (§1)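 Compound dissolved in acetone and diluted in water with 0.1% SYNPERONIC NX wetting agent to 100–500 ppm. Pests held on host plant or food medium, with pests and/or medium treated. Mortality scored 1–7 days after treatment.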

Assay [2] concerns Meloidogyne incognita (Tomato root knot eelworm - larvae). The assay is described as follows: Residual test, Tomato root knot eelworm - larvae (MI), Semi in-vitro. To be noted: 168 h, application rate is half that recorded, 7 days, read-out: MI grading of mortality; for mortality at 125 µg/mL: rate 250 ppm; for mortality at 250 µg/mL: rate column 500 ppm.
Assay [3] has as its system Heliothis virescens (tobacco budworm - larvae). The assay is described as follows: Residual test, tobacco budworm - larvae (HV), Cotton leaf. To be noted: 72 h, read-out: HV grading of mortality. The procedure, abridged: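 Products applied as acetone solutions diluted in water with 0.1% wetting agent, at 100–500 ppm; pests on host plant or food, with pests and/or medium treated. Mortality or knockdown scored 1–7 days after treatment and graded A (80–100%), B (50–79%) or C (<50%).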

Assay [4] deals with Diabrotica balteata (rootworm larvae). The assay is described as follows: Residual test, rootworm larvae (DB), Filter paper/maize seed. The conditions noted are these: 72 h, 3 days, read-out: DB grading of mortality. In outline: as §1
Assay [5] deals with Chilo partellus (Maize stemborer - larvae). The assay is described as follows: Residual test, Maize stemborer - larvae (CP), Oilseed rape. The conditions noted are these: 72 h, 3 days, read-out: CP grading of mortality. The method, then: The activity of the Product was determined using a variety of insect pests. The Product was used in the form of liquid preparations containing from 100 to 500 parts per million (ppm) by weight of the Product. The preparations were made by dissolving the Product in acetone and diluting the solutions with water containing 0.1% by weight of a wetting agent sold under the trade name "SYNPERONIC" NX until the liquid preparations contained the required concentration of the Product. "SYNPERONIC" is a Registered Trade Mark.
The test procedure adopted with regard to each pest was basically the same and comprised supporting a number of the pests on a medium which was usually a host plant or a foodstuff on which the pests feed, and treating either or both the pests and the medium with the preparations. The mortality of the pests was then assessed at periods usually varying from one to seven days after the treatment.
The results of the tests are given in Table III for each of the Products, at the rate in parts per million given in the second column as a grading of mortality designated as A, B or C wherein A indicates 80-100% mortality or knockdown (70-100% for Meloidogyne incognita), B indicates 50-79% mortality knockdown or knockdown (50-69% for Meloidogyne incognita) and C indicates less than 50% mortality or knockdown.
In Table III the pest organism used is designated by a letter code and the pests species, the support medium or food, and the type and duration of test is given in Table II.
(Maize stemborer - larvae)

A further assay concerns Myzus persicae (aphids). Put plainly: Contact test, aphids (MP), Chinese Cabbage leaf. To be noted: 72 h, 3 days, read-out: MP grading of mortality. The procedure, abridged:
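Aphids on a host plant and/or the plant itself were treated with 100–500 ppm of product, applied from acetone diluted in water containing 0.1% SYNPERONIC NX wetting agent. Mortality was scored usually one to seven days after treatment.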

The test system of assay [6] is Nilaparvata lugens (brown plant hopper - nymphs). Put plainly: Contact test, brown plant hopper - nymphs (NL), Rice plant. To be noted: 72 h, 3 days, read-out: NL grading of mortality. The procedure, abridged:
as §1

The test system of assay [7] is Tetranychus urticae (spider mites - ova). The assay is described as follows: Contact test, spider mites - ova (TUe), French bean leaf. The conditions noted are these: 144 h, 6 days, read-out: TUE grading of mortality. In outline: as §1
The test system of assay [8] is Blattella germanica (cockroach nymphs). The assay is described as follows: Residual test, cockroach nymphs (BG), Plastic pot. The conditions noted are these: 72 h, 3 days, read-out: BG grading of mortality. The procedure, abridged:
as §1

Assay [9] relates to Musca domestica (houseflies - adults). The assay is described as follows: Knockdown test, houseflies - adults (MD/KD), Cotton wool/sugar. To be noted: 4 hours, read-out: MD/KD grading of knockdown. The procedure, abridged: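 Product was dissolved in acetone and diluted with water containing 0.1% wetting agent to 100–500 ppm. The flies and/or their food medium were treated with the preparation. Mortality was scored 1–7 days after treatment, with an additional knockdown assessment for houseflies.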

Assay [10] has the same test system. Put plainly: Contact test, houseflies - adults (MD), Cotton wool/sugar. To be noted: 24 h, 1 day, read-out: MD grading of mortality. The procedure, abridged: as §1

The term mortality denotes the share of the test organisms that died.

As to `CCOc1ccc(C(CCCc2ccc(F)c(Oc3ccccc3)c2)C(F)(F)F)cc1` (racemic) [Compound 5, 1,1,1-Trifluoro-2-(4-ethoxyphenyl)-5-(4-fluoro-3-phenoxyphenyl)pentane], the mortality at 250 ppm (in [1]; in assay [3]; in assay [4]; in assay [5]; in the assay on Myzus persicae (aphids); in assay [6]) was 80 to 100% throughout. Also, the mortality at 250 ppm in [7] fell in the range of 50 to 79%; in assay [8], 80 to 100%; in assay [10], 80 to 100%. Further, the mortality at 125 µg/mL in assay [2] was less than 50%. For the same compound, the pest or weed control at 250 ppm in assay [9] fell in the range of 80 to 100%.
With `CC(C)(C)c1ccc(C(CCCc2cccc(Oc3ccccc3)c2)C(F)(F)F)cc1` (racemic) [Compound 8, 1,1,1-Trifluoro-2-[4-(2-methylprop-2-yl)phenyl]-5-(3-phenoxyphenyl)pentane], the mortality at 250 ppm in assay [1] was less than 50%; in assay [3] it was 80 to 100%; in assay [4], 80 to 100%; in [5] it was 80 to 100%; with Myzus persicae (aphids) it was less than 50%; in [6] it was less than 50%. Besides, the mortality at 250 ppm in assay [7] is less than 50%; in [8], 80 to 100%; in assay [10], less than 50%. Moreover, the mortality at 125 µg/mL in assay [2] was in the range of 70 to 100%. Also, the pest or weed control at 250 ppm in assay [9] was less than 50%.
Turning to `FC(F)(F)Oc1ccc(C(CCCc2cccc(Oc3ccccc3)c2)C(F)(F)F)cc1` (racemic) [Compound 9, 1,1,1-Trifluoro-2-(4-trifluoromethoxyphenyl)-5-(3-phenoxyphenyl)pentane], the mortality at 250 ppm (in assay [1]; in assay [3]; in assay [4]; in assay [5]; in the assay with Myzus persicae (aphids); in [6]) was 80 to 100% each time. Further, the mortality at 250 ppm in assay [7], in [8] and in assay [10] was 80 to 100% each time. Further, the mortality at 125 µg/mL in [2] was less than 50%. Moreover, the pest or weed control at 250 ppm in assay [9] fell in the range of 80 to 100%.
In the case of `CCOc1ccc(C(CCCc2cccc(Oc3ccccc3)c2)C(F)(F)C(F)(F)F)cc1` (racemic) [Compound 11, 1,1,1,2,2-Pentafluoro-3-(4-ethoxyphenyl)-6-(3-phenoxyphenyl)hexane], the mortality at 250 ppm (in [1]; in [3]; in [4]; in assay [5]; in the assay with Myzus persicae (aphids); in [6]) was less than 50% throughout. Further, the mortality at 250 ppm in assay [7], in assay [8] and in assay [10] was less than 50% throughout. Also, the mortality at 125 µg/mL in assay [2] is less than 50%. Moreover, the pest or weed control at 250 ppm in [9] fell in the range of 80 to 100%.
For `FC(F)(F)c1ccc(C(CCCc2cccc(Oc3ccccc3)c2)C(F)(F)F)cc1` (racemic) [Compound 16, 1,1,1-Trifluoro-2-(4-trifluoromethylphenyl)-5-(3-phenoxyphenyl)pentane], the mortality at 250 ppm lay within 50 to 79% in assay [1]; 80 to 100% in [3]; 80 to 100% in [4]; 80 to 100% in assay [5]; 80 to 100% with Myzus persicae (aphids); 80 to 100% in assay [6]. For the same compound, the mortality at 250 ppm in [8] and in assay [10] was 80 to 100% throughout. Also, the mortality at 125 µg/mL in assay [2] is less than 50%. In addition, the pest or weed control at 250 ppm in [9] fell in the range of 80 to 100%.
Regarding `Fc1ccc(CCCC(c2ccc(OC(F)(F)F)cc2)C(F)(F)F)cc1Oc1ccccc1` (racemic) [Compound 20, 1,1,1-Trifluoro-2-(4-trifluoromethoxyphenyl)-5-(4-fluoro-3-phenoxyphenyl)pentane], the mortality at 100 ppm in [1] (100 ppm) fell in the range of 50 to 79%; in assay [3] it was 80 to 100%; in assay [4] (100 ppm) it was 80 to 100%; in assay [5] (100 ppm), 80 to 100%; in the assay on Myzus persicae (aphids) (100 ppm), 80 to 100%; in assay [6] (100 ppm) it was 80 to 100%. Moreover, the mortality at 100 ppm in [7] (100 ppm), in assay [8] (100 ppm) and in [10] (100 ppm) was 80 to 100% throughout. In assay [2] (rate column 100 ppm), the mortality at 50 µg/mL was less than 50%. Besides, in assay [9] (100 ppm), the pest or weed control at 100 ppm was 80 to 100%.
In the case of `FC(F)(F)C(CCCc1cccc(Oc2ccccc2)c1)c1ccc(Cl)cc1` (racemic) [Compound 38, 1,1,1-Trifluoro-2-(4-chlorophenyl)-5-(3-phenoxyphenyl)pentane], the mortality at 500 ppm is 80 to 100% in assay [1]; 80 to 100% in [4]; 80 to 100% in [5]; less than 50% in the assay on Myzus persicae (aphids); 80 to 100% in assay [6]; less than 50% in assay [7]. The mortality at 500 ppm in assay [8] and in assay [10] was 50 to 79% each time. Moreover, the pest or weed control at 500 ppm in assay [9] lay within 50 to 79%.
`CCOc1ccc(C(=CCCc2cccc(Oc3ccccc3)c2)C(F)(F)F)cc1` [Compound 1, E,Z-2-(4-ethoxyphenyl)-5-(3-phenoxyphenyl)-1,1,1-trifluoropent-2-ene]: in [2], the mortality at 250 µg/mL is 50 to 69%. The mortality at 500 ppm (in [3]; in assay [4]; in assay [5]; in the assay with Myzus persicae (aphids); in [6]; in assay [8]) was 80 to 100% throughout. Moreover, the mortality at 500 ppm in assay [10] lay within 80 to 100%. Also, in [9], the pest or weed control at 500 ppm is 80 to 100%.
As to `CCOc1ccc(/C(=C\CCc2cccc(Oc3ccccc3)c2)C(F)(F)F)cc1` [Compound 3, E-1,1,1-trifluoro-2-(4-ethoxyphenyl)-5-(3-phenoxyphenyl)pent-2-ene], the mortality at 500 ppm is 50 to 79% in assay [1]; 80 to 100% in assay [3]; 80 to 100% in [4]; 80 to 100% in [5]; 80 to 100% in the assay on Myzus persicae (aphids); less than 50% in assay [6]. Besides, the results for the mortality at 500 ppm in assay [7], in [8] and in assay [10] were less than 50%, 80 to 100% and 80 to 100%, respectively. Besides, the mortality at 250 µg/mL in [2] was less than 50%. In addition, the pest or weed control at 500 ppm in assay [9] is 80 to 100%.

For the origin of these results see patent US4791139A, “Diphenyl ether derivatives and their use as insecticides” (Imperial Chemical Industries PLC, priority 1986, dated 1988).
